We go through ten compounds from patent US7563913B2, “Compound and pharmaceutical composition” (Hiro International Co., Ltd., priority 2003, dated 2009).

In brackets after ≈: the same amount, converted by molar mass.

Experiment [1] relates to human acute myeloid leukemia cell strain HL-60. As to the kind of experiment: Cytotoxic activity, MTT test on HL-60 cells. The format is cell-based. The settings on record: 72 hr incubation; for IC50: Homo sapiens. The protocol:
Cytostatic activity of TD-1 to 10 was studied in terms of numerical values of cytotoxic activity using human acute myeloid leukemia cell strain HL-60. The test was specifically carried out according to the following procedure.
HL-60 cells precultured in an FBS-containing RPMI 1640 medium were suspended in an FBS-containing RPMI 1640 medium so that the number of HL-60 cells is 4×10^4 per mL. The suspension was dispensed in an amount of […] for each well in a 96-well microplate, followed by preincubation in 5% carbon dioxide gas at 37° C. for 24 hr. Subsequently, EtOH-H2O(1:1) as control, and a solution of each TD compound in EtOH-H2O(1:1) as a sample were added each in an amount of […] to each well. After incubation in 5% carbon dioxide gas at 37° C. for 72 hr, an MTT reagent was added in an amount of […] to each well, and incubation was further carried out for 4 hr. The medium was removed, and MTT formazan thus produced was then dissolved in […] of DMSO. Detection was carried out at a light absorption wavelength of 550 nm with a microplate reader, and the viable cell count based on the control was calculated. IC50 values were calculated from a dose-response curve.

Experiment [2] deals with 39 types in total of human tumor cells. Kind of experiment: Human cultured cancer cell panel screening test, average over panel. The settings on record: 50% cell growth inhibitory concentration, average over 39 human tumor cell types. It counts as cell-based. The protocol:
(§1) To examine the cytostatic activity of TD-1, a human cultured cancer cell panel screening test was carried out. Specifically, for TD-1, the human cultured cancer cell panel screening test was carried out by measuring 50% cell growth inhibitory concentration (GI50) against 39 types in total of human tumor cells according to the method described in “Gan To Kagaku Ryoho (Cancer and Chemotherapy) (Takao Yamori), 24, 129-135, 1997”.

The test system of experiment [3] is OVCAR-3 ovarian cancer cell line. Kind of experiment: Human cultured cancer cell panel screening test, OVCAR-3. The format is cell-based. As to the method:
as §1

Experiment [4] relates to OVCAR-4 ovarian cancer cell line. Kind of experiment: Human cultured cancer cell panel screening test, OVCAR-4. It counts as cell-based. As to the method:
as §1

Experiment [5] relates to OVCAR-5 ovarian cancer cell line. Kind of experiment: Human cultured cancer cell panel screening test, OVCAR-5. It counts as cell-based. As to the method: as §1
Experiment [6] concerns OVCAR-8 ovarian cancer cell line. As to the kind of experiment: Human cultured cancer cell panel screening test, OVCAR-8. The format is cell-based. The protocol:
as §1

In experiment [7] the test system is SK-OV-3 ovarian cancer cell line. Kind of experiment: Human cultured cancer cell panel screening test, SK-OV-3. The format is cell-based. The protocol: as §1
Experiment [8] has as its system DU-145 prostatic cancer cell line. Kind of experiment: Human cultured cancer cell panel screening test, DU-145. It counts as cell-based. The protocol:
as §1

Experiment [9] has as its system PC-3 prostatic cancer cell line. Kind of experiment: Human cultured cancer cell panel screening test, PC-3. The format is cell-based. The protocol:
as §1

In a further experiment the test system is P388 mouse leukemia. The settings on record: mice with P388 mouse leukemia intraperitoneally transplanted; Pal et al. 1976; cited from earlier work.

As for `C=C1C(=O)O[C@@H]2C=C(C)[C@@]3(OC)C[C@@H](OC)[C@@](C)(C[C@@H](OC(=O)C(C)C)[C@@H]12)O3` [TD-1, (1R,3R,6R,7R,8R,10R)-1,3-dimethoxy-3,10-epoxy-8-isobutyryloxygermacra-4,11(13)-dien-6,12-olide], the IC50 value result in experiment [1] is reported as “(0.60) μg/mL”. The GI50 (usually the concentration that inhibits growth by half) stood at 6.8 µM in experiment [2]; 3.3 µM in [3]; 5.6 µM in [4]; 2.9 µM in experiment [5]; 3.6 µM in [6]; 4 µM in [7]. Further, the GI50 in experiment [8] was determined as 4.2 µM; in experiment [9], 3.3 µM.
For `C=C1C(=O)OC2/C=C(/C)C(=O)/C=C/C(C)(O)CC(OC(=O)C(C)C)C12` [TD-2, (6S,7R,8R,10R)-10-hydroxy-3-oxo-8-isobutyryloxygermacra-1,4,11(13)-trien-6,12-olide], the midpoint of inhibition in [1], the IC50, lay at 0.38 µg/mL (≈ 1.09 µM).
As to `C=C1C(=O)O[C@@H]2C[C@H](C)[C@@]3(OC)C[C@H](O)[C@@](C)(C[C@@H](OC(=O)C(C)C)[C@@H]12)O3` [TD-3, (1S,3R,4S,6R,7S,8R,10R)-1-hydroxy-3-methoxy-3,10-epoxy-8-isobutyryloxygermacra-11(13)-en-6,12-olide], the IC50 value entry in experiment [1] was “(4.97) μg/mL”.
As to `C=C1C(=O)O[C@@H]2C=C(C)[C@@]3(O)C[C@@H](OC)[C@@](C)(C[C@@H](OC(=O)C(C)C)[C@@H]12)O3` [TD-4, (1R,3R,6R,7R,8R,10R)-3-hydroxy-1-methoxy-3,10-epoxy-8-isobutyryloxygermacra-4,11(13)-dien-6,12-olide], the IC50 value result in experiment [1] is “(0.05) μg/mL”.
The same measure, in the same setting: then `C=C1C(=O)O[C@@H]2C=C(C)[C@@]3(OC)C[C@H](O)[C@@](C)(C[C@@H](OC(=O)C(C)C)[C@@H]12)O3` [TD-6, (1 S,3R,6R,7R, 8R,10R)-1-hydroxy-3-methoxy-3,10-epoxy-8-isobutyryloxygermacra-4,11(13)-dien-6,12-olide], with “(2.50) μg/mL”; and `C=C1C(=O)O[C@@H]2C[C@H](C)[C@@]3(O)C[C@H](O)[C@@](C)(C[C@@H](OC(=O)C(C)C)[C@@H]12)O3` [TD-7, (1S,3R,4S,6R,7S,8R,10R)-1,3-dihydroxy-3,10-epoxy-8-isobutyryloxygermacra-11(13)-en-6,12-olide], with “(3.87) μg/mL”.
For the compound `C=C1C(=O)OC2/C=C(/C)C(O)CC3OC3(C)CC(OC(=O)C(C)C)C12` [TD-8, (1R,3S,6S,7R,8R,10R)-3-hydroxy-1,10-epoxy-8-isobutyrylgermacra-4,11(13)-dien-6,12-olide], in experiment [1], the IC50 (in general, the concentration that gives 50% inhibition) turned out to be 0.92 µg/mL (≈ 2.63 µM).
Regarding `C=C1C(=O)O[C@@H]2C[C@H](C)[C@@]3(O)CC[C@@](C)(C[C@@H](OC(=O)C(C)C)[C@@H]12)O3` [TD-9, (3R,4S,6R,7S,8R,10S)-3-hydroxy-3,10-epoxy-8-isobutyryloxygermacra-11 (13)-en-6,12-olide], the IC50 value entry in [1] is “(2.50) μg/mL”.
Still for that read-out and setting: then `C=C1C(=O)O[C@@H]2C[C@H](C)[C@@]3(OC)CC[C@@](C)(C[C@@H](OC(=O)C(C)C)[C@@H]12)O3` [TD-10, (3R,4S,6R,7S,8R,10S)-3-methoxy-3,10-epoxy-8-isobutyryloxygermacra-11(13)-en-6,12-olide], with “(0.78) μg/mL”.
For `C=C1C(=O)O[C@H]2/C=C(/C)[C@@]3(O)C=C[C@@](C)(C[C@@H](OC(=O)C(C)C)[C@@H]12)O3` [TD-11, (3R,6R,7R,8R,10R)-3-hydroxy-3,10-epoxy-8-isobutyryloxygermacra-1,4,11(13)-trien-6,12-olide], in the experiment on P388 mouse leukemia, the “effect of prolonging the life span of mice” value was “had the effect of prolonging the life span of mice”.
